From ChEMBL document CHEMBL3991601, “The target landscape of clinical kinase drugs” (Science, 2017) come the findings set out here.

Where a name gives a salt, the structure may show the parent alone. Activity calls are given as the source filed them. Some results are limits rather than exact numbers.

In test [1] the target is S-adenosylmethionine synthase isoform type-2 (Homo sapiens, UniProt P31153).
Test [2] concerns the target Putative heat shock protein HSP 90-beta 2 (Homo sapiens, UniProt Q58FF8).
In test [3] the target is T1, ATP-dependent RNA helicase DDX42 (Homo sapiens, UniProt Q86XP3).
T1 sequence (Q86XP3 whole entry): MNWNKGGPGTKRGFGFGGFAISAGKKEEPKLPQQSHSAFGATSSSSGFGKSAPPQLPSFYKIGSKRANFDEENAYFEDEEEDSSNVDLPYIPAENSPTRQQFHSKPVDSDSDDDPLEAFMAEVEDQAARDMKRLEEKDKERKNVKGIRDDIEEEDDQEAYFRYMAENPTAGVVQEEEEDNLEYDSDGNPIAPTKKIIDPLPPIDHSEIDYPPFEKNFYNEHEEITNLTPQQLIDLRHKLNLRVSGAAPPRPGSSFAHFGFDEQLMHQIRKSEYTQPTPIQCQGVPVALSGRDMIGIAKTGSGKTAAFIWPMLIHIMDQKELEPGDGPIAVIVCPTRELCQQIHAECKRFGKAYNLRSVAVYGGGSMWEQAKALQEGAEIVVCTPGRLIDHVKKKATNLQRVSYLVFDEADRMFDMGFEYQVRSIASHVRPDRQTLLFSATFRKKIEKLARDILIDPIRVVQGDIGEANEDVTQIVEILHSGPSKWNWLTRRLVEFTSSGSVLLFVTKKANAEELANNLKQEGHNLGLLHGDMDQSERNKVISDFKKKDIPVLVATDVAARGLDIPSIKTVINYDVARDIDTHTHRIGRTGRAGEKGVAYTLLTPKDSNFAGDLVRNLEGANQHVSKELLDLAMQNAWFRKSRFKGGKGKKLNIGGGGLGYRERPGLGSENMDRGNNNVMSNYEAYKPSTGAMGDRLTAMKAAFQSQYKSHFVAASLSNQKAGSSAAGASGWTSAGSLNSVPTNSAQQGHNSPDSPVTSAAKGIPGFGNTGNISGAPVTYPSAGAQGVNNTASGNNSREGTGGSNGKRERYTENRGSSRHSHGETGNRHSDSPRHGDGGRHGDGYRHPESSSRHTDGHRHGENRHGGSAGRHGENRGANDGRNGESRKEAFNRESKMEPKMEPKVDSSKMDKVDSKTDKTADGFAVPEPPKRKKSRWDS

The target of test [4] is T2, Cytochrome c1, heme protein, mitochondrial (Homo sapiens, UniProt P08574).
T2 sequence (P08574 whole entry): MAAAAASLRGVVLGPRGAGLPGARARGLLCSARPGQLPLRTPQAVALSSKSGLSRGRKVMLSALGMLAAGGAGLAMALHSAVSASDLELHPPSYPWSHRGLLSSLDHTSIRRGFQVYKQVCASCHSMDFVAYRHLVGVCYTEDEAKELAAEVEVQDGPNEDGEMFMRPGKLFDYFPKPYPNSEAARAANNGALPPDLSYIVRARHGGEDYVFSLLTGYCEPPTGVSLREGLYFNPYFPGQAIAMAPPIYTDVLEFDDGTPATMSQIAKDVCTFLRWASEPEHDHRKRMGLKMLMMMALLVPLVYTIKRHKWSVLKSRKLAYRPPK

Test [5] addresses T3, Ribosyldihydronicotinamide dehydrogenase [quinone] (Homo sapiens, UniProt P16083).
T3 sequence (P16083 whole entry): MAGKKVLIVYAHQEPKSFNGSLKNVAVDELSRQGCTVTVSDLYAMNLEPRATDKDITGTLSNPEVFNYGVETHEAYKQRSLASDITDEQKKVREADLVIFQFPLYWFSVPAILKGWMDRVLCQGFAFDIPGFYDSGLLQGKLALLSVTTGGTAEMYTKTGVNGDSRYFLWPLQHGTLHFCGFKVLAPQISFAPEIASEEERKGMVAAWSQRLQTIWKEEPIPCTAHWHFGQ

Test [6] addresses T4, Delta(24)-sterol reductase (Homo sapiens, UniProt Q15392).
T4 sequence (Q15392 whole entry): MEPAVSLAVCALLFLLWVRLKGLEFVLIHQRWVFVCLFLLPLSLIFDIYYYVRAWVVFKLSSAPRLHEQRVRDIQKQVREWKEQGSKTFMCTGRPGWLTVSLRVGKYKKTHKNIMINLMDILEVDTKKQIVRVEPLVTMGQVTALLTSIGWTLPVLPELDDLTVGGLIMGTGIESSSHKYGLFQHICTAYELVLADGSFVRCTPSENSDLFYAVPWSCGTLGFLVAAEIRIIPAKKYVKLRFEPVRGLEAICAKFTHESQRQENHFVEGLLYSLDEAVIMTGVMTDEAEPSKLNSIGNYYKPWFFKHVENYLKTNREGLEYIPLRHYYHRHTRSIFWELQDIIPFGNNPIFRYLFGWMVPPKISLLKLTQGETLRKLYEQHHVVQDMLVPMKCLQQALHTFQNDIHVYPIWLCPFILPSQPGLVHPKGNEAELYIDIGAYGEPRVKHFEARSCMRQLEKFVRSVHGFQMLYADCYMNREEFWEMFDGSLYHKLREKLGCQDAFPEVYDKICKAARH

Test [7] has as its target Protein kinase C delta type (Homo sapiens, UniProt Q05655).
The target of test [8] is Mitogen-activated protein kinase 9 (Homo sapiens, UniProt P45984).
Mitogen-activated protein kinase 9, sequence (P45984 whole entry, canonical isoform): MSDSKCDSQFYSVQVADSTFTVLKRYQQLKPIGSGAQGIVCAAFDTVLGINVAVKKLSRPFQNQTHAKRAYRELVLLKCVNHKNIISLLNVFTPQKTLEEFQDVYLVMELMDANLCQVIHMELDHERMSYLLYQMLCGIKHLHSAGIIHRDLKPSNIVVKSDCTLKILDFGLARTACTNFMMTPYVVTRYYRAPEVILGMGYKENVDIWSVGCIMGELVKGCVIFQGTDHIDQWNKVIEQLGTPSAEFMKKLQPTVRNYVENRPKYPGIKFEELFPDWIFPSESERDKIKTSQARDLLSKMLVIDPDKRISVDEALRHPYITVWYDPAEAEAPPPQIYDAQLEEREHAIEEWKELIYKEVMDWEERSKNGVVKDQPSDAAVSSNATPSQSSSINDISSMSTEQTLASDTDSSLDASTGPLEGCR
The target in test [9] is Casein kinase I isoform gamma-1 (Homo sapiens, UniProt Q9HCP0).
Casein kinase I isoform gamma-1, sequence (Q9HCP0 whole entry, canonical isoform): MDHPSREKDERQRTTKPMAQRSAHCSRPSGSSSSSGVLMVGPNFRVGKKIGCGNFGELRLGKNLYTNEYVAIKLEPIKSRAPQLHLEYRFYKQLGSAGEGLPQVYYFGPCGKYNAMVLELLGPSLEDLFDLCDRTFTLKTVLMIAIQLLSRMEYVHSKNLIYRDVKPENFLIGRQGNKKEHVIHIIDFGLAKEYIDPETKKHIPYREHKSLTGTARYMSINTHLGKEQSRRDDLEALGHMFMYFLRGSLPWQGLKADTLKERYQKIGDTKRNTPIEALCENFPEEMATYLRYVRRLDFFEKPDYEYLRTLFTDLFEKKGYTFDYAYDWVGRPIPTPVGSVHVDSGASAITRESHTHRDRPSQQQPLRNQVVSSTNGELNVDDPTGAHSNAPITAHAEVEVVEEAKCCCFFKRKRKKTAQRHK
For test [10], the target named is Glycogen synthase kinase-3 alpha (Homo sapiens, UniProt P49840).
Glycogen synthase kinase-3 alpha, sequence (P49840 whole entry): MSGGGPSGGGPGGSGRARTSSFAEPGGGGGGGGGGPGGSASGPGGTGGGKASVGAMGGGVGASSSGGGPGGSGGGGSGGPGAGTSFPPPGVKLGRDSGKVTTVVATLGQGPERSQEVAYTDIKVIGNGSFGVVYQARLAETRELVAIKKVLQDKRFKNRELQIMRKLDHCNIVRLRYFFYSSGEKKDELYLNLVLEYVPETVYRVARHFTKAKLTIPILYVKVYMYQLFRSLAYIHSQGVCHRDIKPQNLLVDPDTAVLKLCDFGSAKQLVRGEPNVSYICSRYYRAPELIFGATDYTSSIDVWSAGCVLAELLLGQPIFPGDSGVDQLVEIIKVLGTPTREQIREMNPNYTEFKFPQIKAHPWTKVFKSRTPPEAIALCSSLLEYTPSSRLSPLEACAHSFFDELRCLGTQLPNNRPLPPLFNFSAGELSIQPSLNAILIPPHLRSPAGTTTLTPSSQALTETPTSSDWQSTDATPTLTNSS
For test [11], the target named is Calcium/calmodulin-dependent protein kinase type II subunit gamma (Homo sapiens, UniProt Q13555).
Calcium/calmodulin-dependent protein kinase type II subunit gamma, sequence (Q13555 whole entry): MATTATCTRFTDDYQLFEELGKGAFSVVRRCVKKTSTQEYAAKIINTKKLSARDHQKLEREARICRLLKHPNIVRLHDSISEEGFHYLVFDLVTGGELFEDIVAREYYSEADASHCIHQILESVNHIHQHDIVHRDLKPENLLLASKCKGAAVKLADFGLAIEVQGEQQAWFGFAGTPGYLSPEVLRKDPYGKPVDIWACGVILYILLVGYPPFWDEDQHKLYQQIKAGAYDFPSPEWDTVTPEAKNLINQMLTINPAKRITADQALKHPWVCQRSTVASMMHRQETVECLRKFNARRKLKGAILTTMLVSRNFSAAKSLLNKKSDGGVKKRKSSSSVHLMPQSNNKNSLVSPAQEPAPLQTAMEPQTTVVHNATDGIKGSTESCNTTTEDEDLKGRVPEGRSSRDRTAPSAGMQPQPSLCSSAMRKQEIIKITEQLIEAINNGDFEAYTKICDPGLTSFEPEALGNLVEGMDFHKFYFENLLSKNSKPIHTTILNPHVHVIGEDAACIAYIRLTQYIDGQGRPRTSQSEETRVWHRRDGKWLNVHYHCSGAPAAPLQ
For a further test, the target named is T5, Aurora kinase A (Homo sapiens, UniProt O14965).
T5 sequence (O14965 whole entry): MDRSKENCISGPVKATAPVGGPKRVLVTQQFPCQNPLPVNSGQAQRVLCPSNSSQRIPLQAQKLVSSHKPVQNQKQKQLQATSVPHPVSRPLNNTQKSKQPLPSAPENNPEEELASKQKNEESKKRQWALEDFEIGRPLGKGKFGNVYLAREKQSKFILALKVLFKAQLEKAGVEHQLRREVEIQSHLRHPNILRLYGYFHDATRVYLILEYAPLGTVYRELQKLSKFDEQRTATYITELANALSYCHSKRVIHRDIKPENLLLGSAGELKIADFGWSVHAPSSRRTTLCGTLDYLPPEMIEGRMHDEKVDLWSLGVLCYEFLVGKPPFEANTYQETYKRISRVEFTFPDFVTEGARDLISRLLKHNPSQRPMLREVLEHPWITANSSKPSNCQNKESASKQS
Also: in the data inactive means no Kd found up to 30 µM.

S-adenosylmethionine synthase isoform type-2, sequence (P31153 whole entry, canonical isoform): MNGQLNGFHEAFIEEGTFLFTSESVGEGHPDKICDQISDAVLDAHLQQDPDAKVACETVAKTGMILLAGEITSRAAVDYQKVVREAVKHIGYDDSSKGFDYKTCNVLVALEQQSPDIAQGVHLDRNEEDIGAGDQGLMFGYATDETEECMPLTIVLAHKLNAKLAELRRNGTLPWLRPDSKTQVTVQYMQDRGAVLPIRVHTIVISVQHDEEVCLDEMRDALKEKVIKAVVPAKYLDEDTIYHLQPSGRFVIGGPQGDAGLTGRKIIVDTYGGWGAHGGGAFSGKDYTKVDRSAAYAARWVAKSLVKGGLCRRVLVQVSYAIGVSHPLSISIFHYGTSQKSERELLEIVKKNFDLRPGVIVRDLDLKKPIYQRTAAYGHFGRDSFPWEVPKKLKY
Putative heat shock protein HSP 90-beta 2, sequence (Q58FF8 whole entry): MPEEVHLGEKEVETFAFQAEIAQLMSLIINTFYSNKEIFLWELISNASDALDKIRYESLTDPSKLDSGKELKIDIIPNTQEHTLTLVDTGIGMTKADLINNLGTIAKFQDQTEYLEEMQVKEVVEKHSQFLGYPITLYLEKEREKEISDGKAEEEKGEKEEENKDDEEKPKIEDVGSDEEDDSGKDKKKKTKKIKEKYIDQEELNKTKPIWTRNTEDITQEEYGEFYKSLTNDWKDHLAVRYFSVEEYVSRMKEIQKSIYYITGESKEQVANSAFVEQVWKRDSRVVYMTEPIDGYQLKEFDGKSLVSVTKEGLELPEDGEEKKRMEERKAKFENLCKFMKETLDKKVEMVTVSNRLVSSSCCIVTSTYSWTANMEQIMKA
Protein kinase C delta type, sequence (Q05655 whole entry): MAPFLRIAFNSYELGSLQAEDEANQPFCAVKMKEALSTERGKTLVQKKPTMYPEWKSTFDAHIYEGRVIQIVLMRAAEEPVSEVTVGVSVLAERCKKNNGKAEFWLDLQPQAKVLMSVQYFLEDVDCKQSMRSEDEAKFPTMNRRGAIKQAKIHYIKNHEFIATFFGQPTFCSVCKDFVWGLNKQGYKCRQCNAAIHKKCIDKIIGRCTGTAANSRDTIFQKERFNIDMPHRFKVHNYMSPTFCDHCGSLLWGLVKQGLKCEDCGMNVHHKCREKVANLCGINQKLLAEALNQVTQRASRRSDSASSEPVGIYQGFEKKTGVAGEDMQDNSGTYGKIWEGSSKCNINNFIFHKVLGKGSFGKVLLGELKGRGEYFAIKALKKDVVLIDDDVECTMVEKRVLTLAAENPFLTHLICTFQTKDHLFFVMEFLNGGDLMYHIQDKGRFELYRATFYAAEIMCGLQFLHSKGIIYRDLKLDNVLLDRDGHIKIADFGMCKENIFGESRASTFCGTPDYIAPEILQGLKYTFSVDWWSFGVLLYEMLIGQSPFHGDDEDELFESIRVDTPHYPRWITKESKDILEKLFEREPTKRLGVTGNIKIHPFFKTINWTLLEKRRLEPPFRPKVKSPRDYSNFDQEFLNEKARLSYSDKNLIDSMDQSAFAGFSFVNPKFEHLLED

In general, Kd refers to the equilibrium constant for the complex coming apart. As to `COc1cc(Nc2ncc3c(n2)-c2ccc(Cl)cc2C(c2c(F)cccc2OC)=NC3)ccc1C(=O)O` [ALISERTIB], the Kd in test [1], in test [2], in test [3], in [4], in test [5] and in [6] was > 30 µM (inactive) in each case.

For the compound `O=C(Nc1c[nH]nc1-c1nc2cc(CN3CCOCC3)ccc2[nH]1)NC1CC1` [AT-9283], the Kd is > 30 µM (inactive) in test [1]; > 30 µM (inactive) in test [7]; 0.509 µM (active) in test [8]; > 30 µM (inactive) in [9]; > 30 µM (inactive) in test [2]; 0.006 µM (active) in test [10]. Besides, the Kd in [11], in [3], in [4], in test [5] and in [6] was > 30 µM (inactive) each time.

Regarding `CNC(=O)c1ccccc1Sc1ccc2c(/C=C/c3ccccn3)n[nH]c2c1` [AXITINIB], the Kd in [1], in test [2], in [3], in [4], in [5] and in test [6] was > 30 µM (inactive) throughout.

With `CCS(=O)(=O)N1CCN(c2ccc(Nc3ncc(C(N)=O)c(NC4CC4)n3)cc2)CC1` [Cerdulatinib Hydrochloride], the Kd in test [1] is > 30 µM (inactive); in test [7], 3.82 µM (active); in test [8] it was 1.43 µM (active); on Aurora kinase A it was > 30 µM (inactive); in test [9] it was > 30 µM (inactive); in test [2], > 30 µM (inactive). Besides, the Kd in test [10], in test [11], in test [3], in test [4], in [5] and in test [6] was > 30 µM (inactive) in each case.

In the case of `Cn1cc(C2=C(c3cn(C4CCN(Cc5ccccn5)CC4)c4ccccc34)C(=O)NC2=O)c2ccccc21` [ENZASTAURIN], the Kd in test [1], in test [2], in test [4], in test [5] and in [6] was > 30 µM (inactive) each time.

`Cc1nc2cc(-n3ncc(C(=O)c4cc5ccccc5[nH]4)c3N)ccc2[nH]1` [FGFR INHIBITOR DEBIO 1347]: the Kd (in [1]; in test [7]; in test [8]; on Aurora kinase A; in [9]; in test [2]) was > 30 µM (inactive) in each case. In addition, the Kd in test [10], in test [11], in [3], in test [4], in [5] and in [6] was > 30 µM (inactive) throughout.

For the compound `C[C@@H](Oc1cc(-n2cnc3ccc(CN4CCN(C)CC4)cc32)sc1C(N)=O)c1ccccc1C(F)(F)F` [GSK-461364], the Kd in test [1], in test [2], in test [3], in test [4], in [5] and in test [6] was > 30 µM (inactive) throughout.

With `Cc1[nH]c(/C=C2\C(=O)Nc3ccccc32)c(C)c1CCC(=O)O` [ORANTINIB], the Kd in test [2], in [3], in test [4], in test [5] and in test [6] was > 30 µM (inactive) each time.

On to `NC(=O)c1c(OCc2c(F)cc(Br)cc2F)nsc1NC(=O)NCCCCN1CCCC1` [OSI-632], for which the Kd in [1], in test [2], in [4], in test [5] and in test [6] was > 30 µM (inactive) each time.

Take `CC(=O)NCC(=O)N1[C@@H]2CC[C@H]1c1ccc(Nc3ncc(C(F)(F)F)c(NC4CCC4)n3)cc12` [PF-03814735]: the Kd in test [1], in test [2], in test [3], in test [4], in test [5] and in test [6] was > 30 µM (inactive) in each case.

Turning to `O=C(NOCCO)c1cc(CN2OCCCC2=O)c(F)c(F)c1Nc1ccc(I)cc1F` [RO-4987655], the Kd in test [1], in test [2], in [3], in [4], in test [5] and in test [6] was > 30 µM (inactive) in each case.

For `N#CC[C@H](C1CCCC1)n1cc(-c2ncnc3[nH]ccc23)cn1` [RUXOLITINIB], the Kd in test [1] is > 30 µM (inactive); in [2], > 30 µM (inactive); in [11], 0.259 µM (active); in [4] it was > 30 µM (inactive); in [5], > 30 µM (inactive); in test [6], > 30 µM (inactive).

In the case of `CCS(=O)(=O)c1cccc(-c2cc(C(=O)NC3CCN(C)CC3)c(C)c3[nH]c4ncc(C)cc4c23)c1` [TAK-901], the Kd is > 30 µM (inactive) in test [1]; > 30 µM (inactive) in [7]; > 30 µM (inactive) in test [8]; > 30 µM (inactive) in [9]; > 30 µM (inactive) in test [2]; 22.5 µM (active) in test [10]. Also, the Kd in test [11] was > 30 µM (inactive); in test [3], > 30 µM (inactive); in test [4] it was > 30 µM (inactive); in [5] it was 88.9 µM (active); in [6] it was > 30 µM (inactive).
